Patent publication US20240368168A1, “SARM1 ENZYME ACTIVITY INHIBITOR AND APPLICATION THEREOF” (ARTIVILA BIOPHARMA, priority 2021, published 2024)
pEC50, pIC50: −log10 of the molar value.

What was measured:
[1] = biological target: T1, SARM1 protein in iSARM1 (HEK293) cells (Homo sapiens, UniProt Q6SZW1); experiment: Inhibitory activity in inducible SARM1 overexpressing cell line, intracellular cADPR level; assay type: cell-based; conditions: activator CZ-48 100 μM, cADPR content
T1 construct: The full-length SARM1 was synthesized into the pUC57 plasmid by WZ Biosciences Inc., and PCR was performed using pUC57-SARM1 as a DNA template
T1 sequence (Q6SZW1 28-724): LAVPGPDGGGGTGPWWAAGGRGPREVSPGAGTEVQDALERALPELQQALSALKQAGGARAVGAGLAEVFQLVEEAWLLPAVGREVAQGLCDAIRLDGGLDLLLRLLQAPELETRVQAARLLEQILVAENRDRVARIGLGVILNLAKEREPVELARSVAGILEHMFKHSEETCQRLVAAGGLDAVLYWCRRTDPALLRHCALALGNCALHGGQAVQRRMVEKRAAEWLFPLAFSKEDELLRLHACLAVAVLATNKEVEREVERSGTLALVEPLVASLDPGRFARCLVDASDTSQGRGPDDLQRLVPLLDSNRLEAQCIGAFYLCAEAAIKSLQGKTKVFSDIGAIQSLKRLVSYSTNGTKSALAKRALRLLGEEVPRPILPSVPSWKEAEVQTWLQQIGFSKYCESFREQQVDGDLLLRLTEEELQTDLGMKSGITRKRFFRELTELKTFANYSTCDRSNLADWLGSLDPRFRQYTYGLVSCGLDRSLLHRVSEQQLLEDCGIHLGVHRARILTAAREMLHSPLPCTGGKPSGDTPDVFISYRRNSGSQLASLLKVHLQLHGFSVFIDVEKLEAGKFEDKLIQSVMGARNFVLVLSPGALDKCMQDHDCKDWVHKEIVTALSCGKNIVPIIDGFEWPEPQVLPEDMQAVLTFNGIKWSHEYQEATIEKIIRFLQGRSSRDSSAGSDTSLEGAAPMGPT
Outline: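 Inducible SARM1-overexpressing HEK293 cells preincubated 1.5 h with inhibitor (50 μM final), then activated with 100 μM CZ-48 for 16 h. Intracellular cADPR extracted with perchloric acid, NAD+ removed by NADase, and quantified by cyclase-coupled resazurin cycling assay (Ex/Em 544/599, 30 min kinetics) against cADPR standards; inhibition rate and IC50 calculated.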

dN-SARM1 protein [2] = biological target: T2, dN-SARM1 protein (Homo sapiens, UniProt Q6SZW1); experiment: In vitro biochemical assay for inhibiting SARM1 enzymatic activity (IC50), PC6 fluorescence method; conditions: 50 μM NAD, 50 μM PC6, 50 μM NMN activator
T2 construct: the N-terminal mitochondrial localization signal peptide of SARM1 was removed
T2 sequence (Q6SZW1 28-724): T1 sequence (Q6SZW1 28-724)
Outline: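 Activity read as the rate of PC6 fluorescence change (390 nm excitation, 520 nm emission) over a 30 min room-temperature reaction containing final 50 μM each of NAD, PC6 and NMN activator. Enzyme, 0.05 μg/ml dN-SARM1 in 50 mM Tris-HCl pH 7.5, first incubated 10 min with compound diluted serially from 200 μM; IC50 calculated.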

dN-SARM1 protein [3] = biological target: T2, dN-SARM1 protein; experiment: In vitro biochemical assay for inhibiting SARM1 enzymatic activity (% inhibition rate), PC6 fluorescence method; conditions: 20 μM compound; 50 μM NAD, 50 μM PC6, 50 μM NMN activator
Method: The compounds were subjected to PC6 fluorescence method measurement [Chinese Patent 202010528147.3] using the dN-SARM1 protein obtained through “(4) Protein extraction” in “Expression and purification of SARM1 protein” in the above biological activity example 1.
First, 0.05 μg/ml dN-SARM1 and 20 μM compound were incubated in 50 mM Tris-HCl (pH 7.5) solution for 10 min, and then added with 50 μM NAD and 50 μM PC6 as substrate and 50 μM NMN as activator for 30 minutes of reaction at room temperature. The concentration of each component was the final concentration in the reaction system.
During the reaction, PC6 fluorescence spectrum dynamics were detected by a microplate reader, wherein the excitation wavelength and emission wavelength for detection were 390 nm and 520 nm, respectively. Finally, the reaction rate was used to express the activity of the protein. The higher the reaction rate, the stronger the activity of the protein and the lower the inhibitory efficiency of the compound.

pEC50 [1]	pIC50 (dN-SARM1 protein [2])	inhibition at 20 µM (dN-SARM1 protein [3])	SMILES
> 6.00	5.00 to 6.00	> 90%	CN(C(=O)OC(C)(C)C)c1ccc2ncc(-c3cccc(NC(=O)C4CCOCC4)c3)n2c1 [Compound 49]
5.00 to 6.00	> 6.00	> 90%	CNc1ccc2ncc(-c3cccc(NC(=O)COCCOCC(=O)Nc4cccc(-c5cnc6ccc(NC)cn56)c4)c3)n2c1 [Compound 78]
5.00 to 6.00	5.00 to 6.00	> 90%	CN(C(=O)OC(C)(C)C)c1ccc2ncc(-c3ccc(N)cc3)n2c1 [Compound 40]
5.00 to 6.00	5.00 to 6.00	> 90%	CC(C)(C)OC(=O)N(c1ccccc1)c1ccc2ncc(-c3ccccc3)n2c1 [Compound 90]
> 6.00	> 6.00	> 90%	CC(C)(C)OC(=O)Nc1ccc2ncc(-c3cccc(NC(=O)COCCOCCOCC(=O)Nc4cccc(-c5cnc6ccc(NC(=O)OC(C)(C)C)cn56)c4)c3)n2c1 [Compound 123]
5.00 to 6.00	> 6.00	50 to 89%	CNc1ccc2ncc(-c3ccccc3)n2n1 [Compound 20]
5.00 to 6.00	> 6.00	> 90%	COCCOCC(=O)Nc1cccc(-c2cnc3ccc(NC(=O)C(C)(C)C)cn23)c1 [Compound 130]
5.00 to 6.00	5.00 to 6.00	> 90%	FC(F)(F)c1ccc2ncc(-c3ccccc3)n2c1 [Compound 25]
5.00 to 6.00	5.00 to 6.00	> 90%	c1ccc(-c2cnc3ccc(N4CCOCC4)cn23)cc1 [Compound 34]
5.00 to 6.00	5.00 to 6.00	> 90%	CNc1ccc2ncc(C(=O)Nc3ccccc3)n2c1 [Compound 105, 6-(methylamino)-N-phenylimidazo[1,2-a]pyridin-3-carboxamide]
5.00 to 6.00	5.00 to 6.00	> 90%	COCCOCC(=O)Nc1ccc(-c2cnc3ccc(N(C)C(=O)OC(C)(C)C)cn23)cc1 [Compound 50]
> 6.00	> 6.00	> 90%	CC(C)(C)OC(=O)Nc1ccc2ncc(-c3cccc(NC(=O)COCCOCC(=O)Nc4cccc(-c5cnc6ccc(NC(=O)OC(C)(C)C)cn56)c4)c3)n2c1 [Compound 122]
5.00 to 6.00	> 6.00	> 90%	CN(C(=O)OC(C)(C)C)c1ccc2ncc(-c3cccc(NC(=O)COCCOCCOCC(=O)Nc4cccc5c4CN(C4CCC(=O)NC4=O)C5=O)c3)n2c1 (stereo not drawn) [Compound 115, tert-butyl (3-(3-(2-(2-(2-(2-((2-(2,6-dioxopiperidin-3-yl))-1-oxoisoindolin-4-yl)amino)-2-oxoethoxy)ethoxy)ethoxy)acetamido)phenyl)imidazo[1,2-a]pyridin-6-yl)(methyl) carbamate]
> 6.00	5.00 to 6.00	> 90%	c1ccc(Nc2ccc3ncc(-c4ccccc4)n3c2)cc1 [Compound 75]
5.00 to 6.00	> 6.00	> 90%	COCCOCC(=O)Nc1cccc(-c2cnc3ccc(NC(=O)C4CC4)cn23)c1 [Compound 129, N-(3-(3-(2-(2-methoxyethoxy)acetamido)phenyl)imidazo[1,2-a]pyridin-6-yl)cyclopropanecarboxamide]
5.00 to 6.00	5.00 to 6.00	> 90%	c1cn2cc(N3CCOCC3)ccc2n1 [Compound 32]
5.00 to 6.00	> 6.00	> 90%	CNc1ccc2ncc(-c3cccc(NC(=O)COCCOCCOCC(=O)Nc4cccc(-c5cnc6ccc(NC)cn56)c4)c3)n2c1 [Compound 79]
5.00 to 6.00	5.00 to 6.00	50 to 89%	CC(C)(C)OC(=O)Nc1ccc2ncc(I)n2c1 [Compound 44]
5.00 to 6.00	5.00 to 6.00	> 90%	Brc1cnc2ccc(N3CCOCC3)cn12 [Compound 33]
